Earlier results as cited in patent US10238678B2, “Therapeutic methods” (GlaxoSmithKline LLC, priority 2011, dated 2019).

Compound: NC(=O)c1ncn([C@@H]2O[C@H](CO)[C@@H](O)[C@H]2O)n1 [Ribavirin]
- patients with significant hemolysis (currently recommended doses): 10-20%
- teratogenicity and embryotoxicity (in vivo): teratogenic and embryotoxic
